Measurements taken from ChEMBL document CHEMBL1201862, “PubChem BioAssay data set” (2004).
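Following 48 hours of exposure in 96-well plates, responses at five concentrations were used to interpolate endpoints linearly. Here, GI50 denotes the concentration required for 50% inhibition of growth.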 The source made the active and inactive calls. Rule as the data show it: active = GI50 up to about 1.1 µM and inactive = higher.

Experiments:
Test in all cases: DTP human tumour cell line panel, 48 h
T47D = test system: T47D
SF-268 = test system: SF-268
SR = test system: SR
PC-3 = test system: PC-3
HCT-15 = test system: HCT-15
MDA-N = test system: MDA-N
NCI-H226 = test system: NCI-H226
SN12C = test system: SN12C
HT-29 = test system: HT-29
786-0 = test system: 786-0
Malme-3M = test system: Malme-3M
RXF 393 = test system: RXF 393
NCI-H460 = test system: NCI-H460
TK-10 = test system: TK-10
NCI-H522 = test system: NCI-H522
DU-145 = test system: DU-145
MCF7 = test system: MCF7
SNB-19 = test system: SNB-19
CCRF-CEM = test system: CCRF-CEM
HCC 2998 = test system: HCC 2998

Row | SMILES | GI50 (T47D) | GI50 (SF-268) | GI50 (SR) | GI50 (PC-3) | GI50 (HCT-15) [µM] | GI50 (MDA-N) | GI50 (NCI-H226) | GI50 (SN12C) | GI50 (HT-29) | GI50 (786-0) | GI50 (Malme-3M) | GI50 (RXF 393) | GI50 (NCI-H460) | GI50 (TK-10) | GI50 (NCI-H522) | GI50 (DU-145) | GI50 (MCF7) | GI50 (SNB-19) | GI50 (CCRF-CEM) | GI50 (HCC 2998)
1 | CCCCc1c(O)nc(Nc2nc3ccccc3[nH]2)[nH]c1=O | > 100 µM (inactive) | 98.9 µM (inactive) | > 100 µM (inactive) | > 100 µM (inactive) | > 100 | > 100 µM (inactive) | 67 µM (inactive) | > 100 µM (inactive) | > 100 µM (inactive) | > 100 µM (inactive) | 22.1 µM (inactive) | > 100 µM (inactive) | > 100 µM (inactive) | > 100 µM (inactive) | 57 µM (inactive) | > 100 µM (inactive) | > 100 µM (inactive) | > 100 µM (inactive) | > 100 µM (inactive) | –
2 | COC1=CC(=O)c2c(c(-c3csc(C)n3)cn2C)C1=O | 26.5 µM (inactive) | 27.2 µM (inactive) | 23.3 µM (inactive) | 20.9 µM (inactive) | 6.34 | 14.8 µM (inactive) | 33.6 µM (inactive) | 22.1 µM (inactive) | 23.1 µM (inactive) | 36 µM (inactive) | – | 18.3 µM (inactive) | 3.43 µM (inactive) | 29.9 µM (inactive) | 18.5 µM (inactive) | 4.85 µM (inactive) | 21.7 µM (inactive) | 8.04 µM (inactive) | 19.2 µM (inactive) | 10.9 µM (inactive)
3 | COC(=O)c1ccccc1/C=C1\Cc2ccc3c(c2C1=O)CCC3 | > 100 µM (inactive) | > 100 µM (inactive) | > 100 µM (inactive) | > 100 µM (inactive) | > 100 | > 100 µM (inactive) | > 100 µM (inactive) | > 100 µM (inactive) | > 100 µM (inactive) | > 100 µM (inactive) | > 100 µM (inactive) | > 100 µM (inactive) | > 100 µM (inactive) | > 100 µM (inactive) | > 100 µM (inactive) | > 100 µM (inactive) | > 100 µM (inactive) | – | > 100 µM (inactive) | > 100 µM (inactive)
4 | O=[N+]([O-])c1ccc(N2N=C(c3c(O)ccc4ccccc34)CC2c2ccc(Cl)cc2)c([N+](=O)[O-])c1 (stereo not given) | 32.6 µM (inactive) | 29.5 µM (inactive) | 6.97 µM (inactive) | 6.4 µM (inactive) | 14 | 33.1 µM (inactive) | 20.9 µM (inactive) | 33.4 µM (inactive) | 20.1 µM (inactive) | 27.9 µM (inactive) | 15.2 µM (inactive) | 20 µM (inactive) | 29.9 µM (inactive) | 41 µM (inactive) | 31.5 µM (inactive) | 19.5 µM (inactive) | 26.4 µM (inactive) | – | 11.1 µM (inactive) | 28.6 µM (inactive)
5 | CC(O)CNC1=CC(=O)C(=O)c2ccccc21 (stereo not given) | 20.9 µM (inactive) | 16 µM (inactive) | 16.7 µM (inactive) | 22.3 µM (inactive) | 15 | 18.4 µM (inactive) | – | 17.1 µM (inactive) | – | 17.6 µM (inactive) | 4.15 µM (inactive) | 35.4 µM (inactive) | 14.3 µM (inactive) | 28.7 µM (inactive) | 18.5 µM (inactive) | 15.5 µM (inactive) | 19.5 µM (inactive) | 16.7 µM (inactive) | 37.9 µM (inactive) | 11.7 µM (inactive)
6 | C#CCn1c(=O)c(C)cn(/C(=C\C(=O)OCC)C(=O)OCC)c1=O | 2.65 µM (inactive) | 16.1 µM (inactive) | 2.96 µM (inactive) | 13.5 µM (inactive) | 1.58 | 7.5 µM (inactive) | 17.1 µM (inactive) | 6.3 µM (inactive) | 1.72 µM (inactive) | 2.82 µM (inactive) | 2.1 µM (inactive) | 1.95 µM (inactive) | 2.2 µM (inactive) | 1.77 µM (inactive) | – | 16.1 µM (inactive) | 2.72 µM (inactive) | 19.7 µM (inactive) | 0.435 µM (active) | –
7 | CCCCCCCCCCCCCC[S+](C)C | 2.1 µM (inactive) | 1.51 µM (inactive) | 0.538 µM (active) | 1.24 µM (inactive) | 3.93 | 2.08 µM (inactive) | 1.99 µM (inactive) | 1.59 µM (inactive) | 1.56 µM (inactive) | 1.33 µM (inactive) | – | 1.2 µM (inactive) | 2.11 µM (inactive) | 1.71 µM (inactive) | 1.75 µM (inactive) | 3.8 µM (inactive) | 1.67 µM (inactive) | 1.4 µM (inactive) | 1.23 µM (inactive) | 1.66 µM (inactive)
8 | Cc1ccc(-c2nc(-c3cnccn3)n(C3OC(CO)C(O)C(O)C3O)n2)cc1 (stereo not given) | > 100 µM (inactive) | > 100 µM (inactive) | > 100 µM (inactive) | > 100 µM (inactive) | > 100 | > 100 µM (inactive) | – | > 100 µM (inactive) | > 100 µM (inactive) | > 100 µM (inactive) | – | > 100 µM (inactive) | > 100 µM (inactive) | > 100 µM (inactive) | > 100 µM (inactive) | > 100 µM (inactive) | > 100 µM (inactive) | > 100 µM (inactive) | > 100 µM (inactive) | > 100 µM (inactive)
9 | O=C(O)c1ccc(OCc2ccccc2)c(Cl)c1 | > 100 µM (inactive) | > 100 µM (inactive) | > 100 µM (inactive) | > 100 µM (inactive) | > 100 | > 100 µM (inactive) | > 100 µM (inactive) | > 100 µM (inactive) | > 100 µM (inactive) | > 100 µM (inactive) | > 100 µM (inactive) | > 100 µM (inactive) | > 100 µM (inactive) | > 100 µM (inactive) | > 100 µM (inactive) | > 100 µM (inactive) | > 100 µM (inactive) | > 100 µM (inactive) | > 100 µM (inactive) | –
10 | CCCCCCCCCCC(C(=O)O)C1(C(=O)O)CCC(=O)O1 (stereo not given) | > 100 µM (inactive) | > 100 µM (inactive) | > 100 µM (inactive) | > 100 µM (inactive) | > 100 | > 100 µM (inactive) | > 100 µM (inactive) | > 100 µM (inactive) | > 100 µM (inactive) | > 100 µM (inactive) | – | > 100 µM (inactive) | > 100 µM (inactive) | > 100 µM (inactive) | > 100 µM (inactive) | > 100 µM (inactive) | > 100 µM (inactive) | > 100 µM (inactive) | > 100 µM (inactive) | > 100 µM (inactive)
11 | CCN(CC)C1=Nc2ccccc2-n2ccnc2C1 | > 100 µM (inactive) | > 100 µM (inactive) | > 100 µM (inactive) | > 100 µM (inactive) | > 100 | > 100 µM (inactive) | > 100 µM (inactive) | > 100 µM (inactive) | > 100 µM (inactive) | > 100 µM (inactive) | – | > 100 µM (inactive) | 95.1 µM (inactive) | > 100 µM (inactive) | > 100 µM (inactive) | > 100 µM (inactive) | > 100 µM (inactive) | > 100 µM (inactive) | > 100 µM (inactive) | > 100 µM (inactive)
12 | CC(=O)OCCn1c(Cc2ccc([N+](=O)[O-])cc2)nn(C(C)=O)c1=O | > 100 µM (inactive) | > 100 µM (inactive) | > 100 µM (inactive) | > 100 µM (inactive) | > 100 | > 100 µM (inactive) | > 100 µM (inactive) | > 100 µM (inactive) | > 100 µM (inactive) | > 100 µM (inactive) | > 100 µM (inactive) | – | > 100 µM (inactive) | > 100 µM (inactive) | > 100 µM (inactive) | > 100 µM (inactive) | > 100 µM (inactive) | > 100 µM (inactive) | > 100 µM (inactive) | > 100 µM (inactive)
13 | Cc1cc(S(=O)(=O)N/C(=N/N)NCCc2ccccc2)c(S)cc1Cl | 18.1 µM (inactive) | 28.7 µM (inactive) | 29.9 µM (inactive) | 30.1 µM (inactive) | 19.2 | > 10 µM (inactive) | 25.6 µM (inactive) | 33.5 µM (inactive) | 31.6 µM (inactive) | 30.5 µM (inactive) | 22 µM (inactive) | 21.7 µM (inactive) | – | 39.4 µM (inactive) | 29.6 µM (inactive) | 18.5 µM (inactive) | 32.4 µM (inactive) | 18.1 µM (inactive) | 25.1 µM (inactive) | 23.2 µM (inactive)
14 | O=C(N/N=C/c1ccc(Cl)cc1)c1c(Cl)c(Cl)c(Cl)c(Cl)c1-c1nc2ccccc2[nH]1 | 4.47 µM (inactive) | > 100 µM (inactive) | 59.2 µM (inactive) | 92.5 µM (inactive) | 64.1 | 56.8 µM (inactive) | 0.224 µM (active) | > 100 µM (inactive) | 47.3 µM (inactive) | 28.6 µM (inactive) | > 100 µM (inactive) | 33 µM (inactive) | 30 µM (inactive) | – | 55.7 µM (inactive) | > 100 µM (inactive) | 16.2 µM (inactive) | > 100 µM (inactive) | 50.4 µM (inactive) | 5.5 µM (inactive)
15 | N=c1c2sc3nc4ccccc4n3c2ncn1Cc1ccccc1 | > 100 µM (inactive) | > 100 µM (inactive) | > 100 µM (inactive) | > 100 µM (inactive) | > 100 | > 100 µM (inactive) | > 100 µM (inactive) | – | – | > 100 µM (inactive) | > 100 µM (inactive) | 63.5 µM (inactive) | – | 84.3 µM (inactive) | > 100 µM (inactive) | > 100 µM (inactive) | > 100 µM (inactive) | > 100 µM (inactive) | > 100 µM (inactive) | > 100 µM (inactive)
